This test has as its system C57BL/6J mice. The experiment in a line: Glucokinase activator in vivo screen protocol (blood glucose after oral dosing). The settings on record: administered orally, 50 mg/kg, C57BL/6J mice fasted two hours; active = significant (p<0.05) decrease in blood glucose vs vehicle for two consecutive time points. How it is done:
Glucokinase Activator in vivo Screen Protocol
C57BL/6J mice are orally dosed via gavage with Glucokinase (GK) activator at 50 mg/kg body weight following a two hour fasting period. Blood glucose determinations are made five times during the six hour post-dose study period.
Mice (n=6) are weighed and fasted for a two hour period prior to oral treatment. GK activators are formulated at 6.76 mg/ml in Gelucire vehicle (Ethanol:Gelucire44/14:PEG400q.s. 4:66:30 v/w/v. Mice are dosed orally with 7.5 μL formulation per gram of body weight to equal a 50 mg/kg dose. Immediately prior to dosing, a pre dose (time zero) blood glucose reading is acquired by snipping off a small portion of the animals tail (−1 mm) and collecting 15 μL blood into a heparinized capillary tube for analysis. Following GK activator administration, additional blood glucose readings are taken at 1, 2, 4, and 6 hours post dose from the same tail wound. Results are interpreted by comparing the mean blood glucose values of six vehicle treated mice with six GK activator treated mice over the six hour study duration.

Three molecules from patent publication US6441184B1, “Fused heteroaromatic glucokinase activators” (Hoffmann-LA Roche Inc., priority 2000, dated 2002) can be followed below.

For the molecule `CS(=O)(=O)c1ccc(C(CC2CCCC2)C(=O)Nc2ccc3ccccc3n2)cc1Cl` (stereo not drawn) [Example 22, 2-(3-Chloro-4-methanesulfonyl-phenyl)-3-cyclopentyl-N-quinolin-2-yl-propionamide], the “glucokinase activator in vivo activity” value is “excellent glucokinase activator in vivo activity”.

For the molecule `CS(=O)(=O)c1ccc(C(CC2CCCC2)C(=O)Nc2nc3ccccc3[nH]2)cc1Cl` (stereo not drawn) [Example 20, N-(1H-Benzoimidazol-2-yl)-2-(3-chloro-4-methanesulfonyl-phenyl)-3-cyclopentyl-propionamide], the “glucokinase activator in vivo activity” value is reported as “excellent glucokinase activator in vivo activity”.

Regarding `CS(=O)(=O)c1ccc([C@@H](CC2CCCC2)C(=O)Nc2nc3ccccc3s2)cc1Cl` [Example 19, N-Benzothiazol-2-yl-2(R)-(3-chloro-4-methanesulfonyl-phenyl)-3-cyclopentyl-propionamide], the “glucokinase activator in vivo activity” value is “excellent glucokinase activator in vivo activity”.
